According to the NIST ThermoML archive (doi:10.1021/je700699u):
Numbers after ± are expanded uncertainties.

Experiment: cn = amount concentration of the nth substance listed, in mol/dm3
Conditions: 101 kPa, Liquid

N[C@@H](Cc1ccccc1)C(=O)[O-].[K+] [potassium L-phenylalaninate] + O
Conditions | mass density, 298.15 K [kg/m3] | mass density, 303.15 K [kg/m3] | mass density, 313.15 K [kg/m3] | mass density, 323.15 K [kg/m3] | mass density, 333.15 K [kg/m3] | viscosity, 298.15 K [mPa·s] | viscosity, 303.15 K [mPa·s] | viscosity, 313.15 K [mPa·s] | viscosity, 323.15 K [mPa·s] | viscosity, 333.15 K [mPa·s]
c1 = 0.25 | 1015 ± 2 | 1014 ± 2 | 1010 ± 2 | 1005 ± 1 | 1001 ± 1 | 1.059 ± 0.034 | 0.938 ± 0.03 | 0.769 ± 0.025 | 0.641 ± 0.022 | 0.549 ± 0.019
c1 = 0.496 | 1032 ± 2 | 1031 ± 2 | 1027 ± 2 | 1022 ± 2 | 1017 ± 2 | 1.224 ± 0.038 | 1.092 ± 0.034 | 0.884 ± 0.029 | 0.738 ± 0.025 | 0.631 ± 0.022
c1 = 0.745 | 1051 ± 2 | 1049 ± 2 | 1044 ± 2 | 1039 ± 2 | 1034 ± 2 | – | – | – | – | –
c1 = 0.746 | – | – | – | – | – | 1.441 ± 0.044 | 1.279 ± 0.04 | 1.032 ± 0.033 | 0.852 ± 0.028 | 0.72 ± 0.024
c1 = 0.996 | 1067 ± 2 | 1065 ± 2 | 1060 ± 2 | 1055 ± 2 | 1049 ± 2 | 1.695 ± 0.051 | 1.495 ± 0.046 | 1.194 ± 0.037 | 0.98 ± 0.031 | 0.823 ± 0.027
c1 = 1.226 | 1084 ± 3 | 1081 ± 3 | 1077 ± 3 | 1071 ± 3 | 1066 ± 2 | – | – | – | – | –
c1 = 1.227 | – | – | – | – | – | 2.03 ± 0.061 | 1.782 ± 0.054 | 1.41 ± 0.043 | 1.15 ± 0.036 | 0.963 ± 0.031
c1 = 1.453 | 1100 ± 3 | 1097 ± 3 | 1092 ± 3 | 1087 ± 3 | 1081 ± 3 | 2.483 ± 0.073 | 2.169 ± 0.064 | 1.702 ± 0.052 | 1.377 ± 0.043 | 1.139 ± 0.036

O=C([O-])[C@@H]1CCCN1.[K+] [potassium L-prolinate] + O
Conditions | mass density, 298.15 K [kg/m3] | mass density, 303.15 K [kg/m3] | mass density, 313.15 K [kg/m3] | mass density, 323.15 K [kg/m3] | mass density, 333.15 K [kg/m3] | viscosity, 298.15 K [mPa·s] | viscosity, 303.15 K [mPa·s] | viscosity, 313.15 K [mPa·s] | viscosity, 323.15 K [mPa·s] | viscosity, 333.15 K [mPa·s]
c1 = 0.507 | 1028 ± 2 | 1027 ± 2 | 1023 ± 2 | 1019 ± 2 | 1014 ± 2 | 1.107 ± 0.035 | 0.986 ± 0.032 | 0.799 ± 0.026 | 0.664 ± 0.023 | 0.565 ± 0.02
c1 = 1.01 | 1059 ± 2 | 1057 ± 2 | 1053 ± 2 | 1048 ± 2 | 1043 ± 2 | 1.4 ± 0.043 | 1.242 ± 0.039 | 0.992 ± 0.032 | 0.816 ± 0.027 | 0.685 ± 0.023
c1 = 1.523 | 1089 ± 3 | 1087 ± 3 | 1082 ± 3 | 1077 ± 3 | 1072 ± 3 | 1.811 ± 0.055 | 1.59 ± 0.048 | 1.251 ± 0.039 | 1.017 ± 0.032 | 0.846 ± 0.028
c1 = 2.01 | 1118 ± 3 | 1115 ± 3 | 1110 ± 3 | 1105 ± 3 | 1100 ± 3 | 2.365 ± 0.07 | 2.061 ± 0.062 | 1.599 ± 0.049 | 1.286 ± 0.04 | 1.061 ± 0.034
c1 = 2.521 | 1146 ± 4 | 1144 ± 4 | 1138 ± 4 | 1133 ± 4 | 1127 ± 4 | 3.163 ± 0.092 | 2.721 ± 0.08 | 2.076 ± 0.062 | 1.636 ± 0.05 | 1.331 ± 0.041
c1 = 2.983 | 1171 ± 4 | 1168 ± 4 | 1162 ± 4 | 1156 ± 4 | 1150 ± 4 | 4.112 ± 0.12 | 3.516 ± 0.1 | 2.664 ± 0.078 | 2.068 ± 0.062 | 1.658 ± 0.05
c1 = 3.448 | 1197 ± 5 | 1194 ± 5 | 1188 ± 5 | 1182 ± 4 | 1176 ± 4 | 5.732 ± 0.16 | 4.837 ± 0.14 | 3.587 ± 0.1 | 2.767 ± 0.081 | 2.181 ± 0.065
